According to ChEMBL document CHEMBL1201862, “PubChem BioAssay data set” (2004):
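Values below derive from 48-hour exposures of cells grown in 96-well plates, with endpoints linearly interpolated between the two concentrations bracketing the appropriate inhibition level. At the GI50, growth is halved.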 Activity calls are given as the source filed them. No stated cut-off is given here; in the data, active = GI50 up to about 1.1 µM and inactive = higher.

Experiments:
Experiment in all cases: inhibition of tumour cell growth, NCI panel, 48 h
K562 = test system: K562
U-251 = test system: U-251
A498 = test system: A498
SF-539 = test system: SF-539
OVCAR-3 = test system: OVCAR-3
SK-MEL-28 = test system: SK-MEL-28
SF-295 = test system: SF-295
OVCAR-4 = test system: OVCAR-4
HL-60 = test system: HL-60
IGROV-1 = test system: IGROV-1
MOLT-4 = test system: MOLT-4
SK-OV-3 = test system: SK-OV-3
COLO 205 = test system: COLO 205
HOP-92 = test system: HOP-92
SW-620 = test system: SW-620
HCT-15 = test system: HCT-15
SN12C = test system: SN12C
SR = test system: SR

SMILES	GI50 (K562)	GI50 (U-251)	GI50 (A498)	GI50 (SF-539)	GI50 (OVCAR-3)	GI50 (SK-MEL-28)	GI50 (SF-295)	GI50 (OVCAR-4)	GI50 (HL-60)	GI50 (IGROV-1)	GI50 (MOLT-4)	GI50 (SK-OV-3)	GI50 (COLO 205)	GI50 (HOP-92)	GI50 (SW-620)	GI50 (HCT-15) [µM]	GI50 (SN12C)	GI50 (SR)
Cc1cccc(C2=C/C(=C(\SS/C(C(=O)c3ccc(OCC(=O)O)c(Cl)c3Cl)=C3\C=C(c4cccc(C)c4)SS3)C(=O)c3ccc(OCC(=O)O)c(Cl)c3Cl)SS2)c1	4.31 µM (inactive)	4.51 µM (inactive)	24.4 µM (inactive)	12.4 µM (inactive)	14.2 µM (inactive)	18.6 µM (inactive)	24.5 µM (inactive)	17.2 µM (inactive)	1.85 µM (inactive)	12.1 µM (inactive)	13.6 µM (inactive)	36.6 µM (inactive)	7.94 µM (inactive)	5.45 µM (inactive)	18.1 µM (inactive)	12	14.8 µM (inactive)	
O=C(Nc1cccc(O)c1)C(=O)C(C(=O)c1ccc(Cl)c(Cl)c1)C1OC(=O)c2ccccc21 (centres undefined)	15 µM (inactive)	8.02 µM (inactive)	19.5 µM (inactive)			21.6 µM (inactive)	20.3 µM (inactive)	13.3 µM (inactive)	12.9 µM (inactive)	22.2 µM (inactive)	5.01 µM (inactive)	12.8 µM (inactive)	15.9 µM (inactive)	22.5 µM (inactive)	14.4 µM (inactive)	15.5	18.6 µM (inactive)	4.44 µM (inactive)
COc1ccc(/C=C/C(C(=O)O)C(=O)O)cc1	32.4 µM (inactive)	> 100 µM (inactive)		> 100 µM (inactive)	47.9 µM (inactive)	22.5 µM (inactive)	> 100 µM (inactive)	35.2 µM (inactive)	24.3 µM (inactive)	> 100 µM (inactive)	25.8 µM (inactive)	> 100 µM (inactive)	> 100 µM (inactive)	72.1 µM (inactive)	31.5 µM (inactive)	45.6	51.3 µM (inactive)	34.8 µM (inactive)
C[C@@H](CO)OCOCc1ccccc1	> 100 µM (inactive)	> 100 µM (inactive)	> 100 µM (inactive)	> 100 µM (inactive)	> 100 µM (inactive)	> 100 µM (inactive)	> 100 µM (inactive)	> 100 µM (inactive)	> 100 µM (inactive)	> 100 µM (inactive)	> 100 µM (inactive)	> 100 µM (inactive)	> 100 µM (inactive)	> 100 µM (inactive)	> 100 µM (inactive)	> 100	> 100 µM (inactive)	
Cc1cc2c(=O)cc(-c3ccncc3)oc2c(C(=O)O)c1C		> 100 µM (inactive)		> 100 µM (inactive)	> 100 µM (inactive)	> 100 µM (inactive)	> 100 µM (inactive)		> 100 µM (inactive)	> 100 µM (inactive)	> 100 µM (inactive)	> 100 µM (inactive)	> 100 µM (inactive)	> 100 µM (inactive)	> 100 µM (inactive)	> 100	> 100 µM (inactive)	> 100 µM (inactive)
Cc1c(C(=O)C/C(=N/NC(=O)C[n+]2ccccc2)C(=O)Nc2ccccc2)[n+]([O-])c2ccccc2[n+]1[O-]	> 100 µM (inactive)	> 100 µM (inactive)	> 100 µM (inactive)	> 100 µM (inactive)	> 100 µM (inactive)	> 100 µM (inactive)	> 100 µM (inactive)	> 100 µM (inactive)	> 100 µM (inactive)	> 100 µM (inactive)	> 100 µM (inactive)	> 100 µM (inactive)	> 100 µM (inactive)		> 100 µM (inactive)	> 100	> 100 µM (inactive)	87.5 µM (inactive)
